Results on 1 compound are retold here after the NIST ThermoML archive (doi:10.1016/j.tca.2008.10.009).

For this series the following is noted: Crystal, Rate of evaporation.

A word on the vapor or sublimation pressure: it is the equilibrium pressure above the liquid or solid.

As to `CC(C)C[C@H](N)C(=O)O` [L-leucine], the “vapor or sublimation pressure” value was 0.0009 kPa (420.7 K); 0.0029 kPa (440.3 K); 0.0425 kPa (469.9 K); 0.5263 kPa (499.2 K); 2.162 kPa (517.5 K).
